Reference: PubChem BioAssay (NCI)
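Each compound was tested at five concentrations against cells in 96-well plates for 48 hours. The concentration for 50% growth inhibition is given as GI50. TGI marks complete inhibition of growth.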

Columns and labels:
Test in all cases: NCI tumour cell line growth inhibition, 48 h
786-0 renal = system: 786-0 renal
A498 renal = system: A498 renal
A549 NSCLC = system: A549 NSCLC
ACHN renal = system: ACHN renal
BT-549 breast = system: BT-549 breast
CAKI-1 renal = system: CAKI-1 renal
CCRF-CEM leukemia = system: CCRF-CEM leukemia
COLO 205 colon = system: COLO 205 colon
DU-145 prostate = system: DU-145 prostate
EKVX NSCLC = system: EKVX NSCLC
HCC-2998 colon = system: HCC-2998 colon
HCT-116 colon = system: HCT-116 colon
HCT-15 colon = system: HCT-15 colon
HL-60(TB) leukemia = system: HL-60(TB) leukemia
HOP-62 NSCLC = system: HOP-62 NSCLC
HOP-92 NSCLC = system: HOP-92 NSCLC
HS 578T breast = system: HS 578T breast
HT29 colon = system: HT29 colon
IGROV1 ovarian = system: IGROV1 ovarian
K-562 leukemia = system: K-562 leukemia
KM12 colon = system: KM12 colon
LOX IMVI melanoma = system: LOX IMVI melanoma
M14 melanoma = system: M14 melanoma
MALME-3M melanoma = system: MALME-3M melanoma
MCF7 breast = system: MCF7 breast
MDA-MB-231 breast = system: MDA-MB-231 breast
MDA-MB-435 = system: MDA-MB-435
MDA-MB-468 breast = system: MDA-MB-468 breast
MOLT-4 leukemia = system: MOLT-4 leukemia
NCI-H226 lung = system: NCI-H226 lung
NCI-H23 lung = system: NCI-H23 lung
NCI-H460 lung = system: NCI-H460 lung
NCI-H522 lung = system: NCI-H522 lung
NCI/ADR-RES ovarian = system: NCI/ADR-RES ovarian
OVCAR-3 ovarian = system: OVCAR-3 ovarian
OVCAR-4 ovarian = system: OVCAR-4 ovarian
OVCAR-5 ovarian = system: OVCAR-5 ovarian
OVCAR-8 ovarian = system: OVCAR-8 ovarian
PC-3 prostate = system: PC-3 prostate
RPMI-8226 leukemia = system: RPMI-8226 leukemia
RXF 393 renal = system: RXF 393 renal
SF-268 CNS = system: SF-268 CNS
SF-295 CNS = system: SF-295 CNS
SF-539 CNS = system: SF-539 CNS
SK-MEL-2 melanoma = system: SK-MEL-2 melanoma
SK-MEL-28 melanoma = system: SK-MEL-28 melanoma
SK-MEL-5 melanoma = system: SK-MEL-5 melanoma
SK-OV-3 ovarian = system: SK-OV-3 ovarian
SN12C renal = system: SN12C renal
SNB-19 CNS = system: SNB-19 CNS
SNB-75 CNS = system: SNB-75 CNS
SR leukemia = system: SR leukemia
SW-620 colon = system: SW-620 colon
T-47D breast = system: T-47D breast
TK-10 renal = system: TK-10 renal
U251 CNS = system: U251 CNS
UACC-257 melanoma = system: UACC-257 melanoma
UACC-62 melanoma = system: UACC-62 melanoma
UO-31 renal = system: UO-31 renal

SMILES: O=C(NCCCCC(c1ccc(F)cc1)c1ccc(F)cc1)NCCCc1cccnc1
- GI50 (786-0 renal): 13.3 µM
- TGI (786-0 renal): 37.1 µM
- GI50 (A498 renal): 18.3 µM
- TGI (A498 renal): 32.9 µM
- GI50 (A549 NSCLC): 2.62 µM
- TGI (A549 NSCLC): 40.5 µM
- GI50 (ACHN renal): 9.16 µM
- TGI (ACHN renal): 22.8 µM
- GI50 (BT-549 breast): 3.21 µM
- TGI (BT-549 breast): 15.3 µM
- GI50 (CAKI-1 renal): 5.87 µM
- TGI (CAKI-1 renal): 25.3 µM
- GI50 (CCRF-CEM leukemia): 0.33 µM
- TGI (CCRF-CEM leukemia): 24.6 µM
- GI50 (COLO 205 colon): 0.877 µM
- TGI (COLO 205 colon): 16.2 µM
- GI50 (DU-145 prostate): 0.721 µM
- TGI (DU-145 prostate): 17.2 µM
- GI50 (EKVX NSCLC): 5.01 µM
- TGI (EKVX NSCLC): 23.6 µM
- GI50 (HCC-2998 colon): 0.822 µM
- TGI (HCC-2998 colon): 17.3 µM
- GI50 (HCT-116 colon): 0.0931 µM
- TGI (HCT-116 colon): 13 µM
- GI50 (HCT-15 colon): 0.461 µM
- TGI (HCT-15 colon): 14.9 µM
- GI50 (HL-60(TB) leukemia): 1.64 µM
- TGI (HL-60(TB) leukemia): > 39.4 µM
- GI50 (HOP-62 NSCLC): 14.6 µM
- TGI (HOP-62 NSCLC): 30.2 µM
- GI50 (HOP-92 NSCLC): 10.4 µM
- TGI (HOP-92 NSCLC): 26.5 µM
- GI50 (HS 578T breast): 5.04 µM
- TGI (HS 578T breast): 34.9 µM
- GI50 (HT29 colon): 0.619 µM
- TGI (HT29 colon): 17 µM
- GI50 (IGROV1 ovarian): 0.816 µM
- TGI (IGROV1 ovarian): 19.2 µM
- GI50 (K-562 leukemia): 0.385 µM
- TGI (K-562 leukemia): > 100 µM
- GI50 (KM12 colon): 0.81 µM
- TGI (KM12 colon): 18.4 µM
- GI50 (LOX IMVI melanoma): 10.7 µM
- TGI (LOX IMVI melanoma): 23.4 µM
- GI50 (M14 melanoma): 0.607 µM
- TGI (M14 melanoma): 16.4 µM
- GI50 (MALME-3M melanoma): 8.47 µM
- TGI (MALME-3M melanoma): 21.7 µM
- GI50 (MCF7 breast): 3.61 µM
- TGI (MCF7 breast): 20.3 µM
- GI50 (MDA-MB-231 breast): 4.94 µM
- TGI (MDA-MB-231 breast): 20.9 µM
- GI50 (MDA-MB-435): 0.444 µM
- TGI (MDA-MB-435): 15 µM
- GI50 (MDA-MB-468 breast): 1.53 µM
- TGI (MDA-MB-468 breast): 10.6 µM
- GI50 (MOLT-4 leukemia): 1.13 µM
- TGI (MOLT-4 leukemia): > 50.5 µM
- GI50 (NCI-H226 lung): 12.3 µM
- TGI (NCI-H226 lung): 29 µM
- GI50 (NCI-H23 lung): 6.8 µM
- TGI (NCI-H23 lung): 23 µM
- GI50 (NCI-H460 lung): 3.23 µM
- TGI (NCI-H460 lung): 19.4 µM
- GI50 (NCI-H522 lung): 0.546 µM
- TGI (NCI-H522 lung): 16.1 µM
- GI50 (NCI/ADR-RES ovarian): 0.584 µM
- TGI (NCI/ADR-RES ovarian): 17.3 µM
- GI50 (OVCAR-3 ovarian): 4.58 µM
- TGI (OVCAR-3 ovarian): 22.4 µM
- GI50 (OVCAR-4 ovarian): 4.71 µM
- TGI (OVCAR-4 ovarian): 53.1 µM
- GI50 (OVCAR-5 ovarian): 0.628 µM
- TGI (OVCAR-5 ovarian): 17.8 µM
- GI50 (OVCAR-8 ovarian): 0.127 µM
- TGI (OVCAR-8 ovarian): 26.4 µM
- GI50 (PC-3 prostate): 0.645 µM
- TGI (PC-3 prostate): 19 µM
- GI50 (RPMI-8226 leukemia): 0.627 µM
- TGI (RPMI-8226 leukemia): 20.3 µM
- GI50 (RXF 393 renal): 12.4 µM
- TGI (RXF 393 renal): 27.3 µM
- GI50 (SF-268 CNS): 12.3 µM
- TGI (SF-268 CNS): 29.2 µM
- GI50 (SF-295 CNS): 1.82 µM
- TGI (SF-295 CNS): 15.4 µM
- GI50 (SF-539 CNS): 0.0974 µM
- TGI (SF-539 CNS): 11.9 µM
- GI50 (SK-MEL-2 melanoma): 4.24 µM
- TGI (SK-MEL-2 melanoma): 16.9 µM
- GI50 (SK-MEL-28 melanoma): 10.6 µM
- TGI (SK-MEL-28 melanoma): 23.5 µM
- GI50 (SK-MEL-5 melanoma): 1.22 µM
- TGI (SK-MEL-5 melanoma): 9.46 µM
- GI50 (SK-OV-3 ovarian): 10.9 µM
- TGI (SK-OV-3 ovarian): 29 µM
- GI50 (SN12C renal): 0.133 µM
- TGI (SN12C renal): 15.2 µM
- GI50 (SNB-19 CNS): 1.79 µM
- TGI (SNB-19 CNS): 18.5 µM
- GI50 (SNB-75 CNS): 8.64 µM
- TGI (SNB-75 CNS): 26.8 µM
- GI50 (SR leukemia): 3.17 µM
- TGI (SR leukemia): > 100 µM
- GI50 (SW-620 colon): 0.297 µM
- TGI (SW-620 colon): 15.7 µM
- GI50 (T-47D breast): 0.749 µM
- TGI (T-47D breast): 16.1 µM
- GI50 (TK-10 renal): 13.7 µM
- TGI (TK-10 renal): 29.2 µM
- GI50 (U251 CNS): 3.88 µM
- TGI (U251 CNS): 22.1 µM
- GI50 (UACC-257 melanoma): 9.06 µM
- TGI (UACC-257 melanoma): 23.8 µM
- GI50 (UACC-62 melanoma): 7.11 µM
- TGI (UACC-62 melanoma): 20.2 µM
- GI50 (UO-31 renal): 5.51 µM
- TGI (UO-31 renal): 20.1 µM
